Reference: patent publication US20240116985A1, “STAPLED PEPTIDES AND METHODS THEREOF” (priority 2020, published 2024)
Converted amounts (≈) assume the structure as drawn. Like-named read-outs stand apart in the source and are kept apart here.

Columns and labels:
[1] = molecular target: T1, full-length beta-Catenin (Uniprot ID P35222) (Homo sapiens, UniProt P35222); assay: Fluorescence polarization IC50 (beta-catenin / 5FAM-TCF4 10-53 competition); format: binding
T1 construct: 10 nM full-length beta-Catenin (Uniprot ID P35222)
T1 sequence (P35222 1-781): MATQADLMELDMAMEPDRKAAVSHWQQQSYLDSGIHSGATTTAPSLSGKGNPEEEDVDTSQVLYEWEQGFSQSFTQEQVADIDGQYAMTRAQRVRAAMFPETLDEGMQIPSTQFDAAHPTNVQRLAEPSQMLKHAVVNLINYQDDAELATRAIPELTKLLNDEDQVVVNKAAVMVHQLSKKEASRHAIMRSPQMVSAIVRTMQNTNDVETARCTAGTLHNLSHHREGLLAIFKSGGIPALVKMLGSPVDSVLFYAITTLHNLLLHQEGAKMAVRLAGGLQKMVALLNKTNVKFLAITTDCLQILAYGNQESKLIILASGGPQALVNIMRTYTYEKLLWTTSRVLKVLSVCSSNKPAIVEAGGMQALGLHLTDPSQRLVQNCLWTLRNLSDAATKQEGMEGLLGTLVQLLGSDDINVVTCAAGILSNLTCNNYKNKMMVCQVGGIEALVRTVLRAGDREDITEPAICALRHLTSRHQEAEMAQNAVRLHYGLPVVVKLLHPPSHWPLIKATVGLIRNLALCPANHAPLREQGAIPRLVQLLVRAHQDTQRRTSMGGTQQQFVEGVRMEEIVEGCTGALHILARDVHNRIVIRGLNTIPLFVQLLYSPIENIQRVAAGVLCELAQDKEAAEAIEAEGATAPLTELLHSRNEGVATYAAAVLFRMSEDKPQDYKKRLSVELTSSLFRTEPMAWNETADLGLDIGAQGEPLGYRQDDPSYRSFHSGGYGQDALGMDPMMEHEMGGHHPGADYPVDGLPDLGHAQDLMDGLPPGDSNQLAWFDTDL

CHI Log D procedure = format: physicochemical; settings: for CHI Log D: pH 7.4; for chromatographic logD: pH 7.4, CHI Log D
Solubility in PBS = format: physicochemical
In short: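 PBS sample ultracentrifuged; supernatant run on HPLC vs. 50 μM peptide in DMSO standard. Solubility = (PBS peak area / DMSO peak area) × 50 uM.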

[2] = fluorescence polarization, read-out: beta-Catenin FP IC50

Row | SMILES | IC50 [1, 2] [µM] | IC50 ([1]; read-out: FP EC50) [µM] | CHI Log D (CHI Log D procedure) | Solubility (Solubility in PBS) [µM] | chromatographic logD (CHI Log D procedure) | Solubility (Solubility in PBS; Solubility (uM)) [µM]
1 | CC[C@H](C)[C@@H]1NC(=O)[C@H](CC(=O)O)NC(=O)[C@]2(CC=CCCCC3(CCCC=CCCCCCC[C@@](C)(C(=O)N[C@@H](Cc4ccccc4)C(=O)N[C@@H](Cc4csc5ccccc45)C(N)=O)NC(=O)[C@H](CCC(N)=O)NC(=O)[C@H](Cc4ccccc4)NC(=O)[C@H](C)NC(=O)[C@H](C)NC(=O)[C@H](CCC(=O)O)NC(=O)[C@H](CC(=O)O)NC3=O)NC1=O)CCCN2C(C)=O (stereo partly drawn) [I-409, Ac-PL3-Asp-Ile-B5-Asp-Glu-Ala-Ala-Phe-Gln-S8-Phe-BztA-NH2] | 0.07 | 0.07 | 2.741 | 48 (≈ 84.2 µg/mL) | – | –
2 | CC(=O)N1CCC[C@]12CC=CCCCC1(CCCC=CCCCCCC[C@@](C)(C(=O)N[C@@H](Cc3ccccc3)C(=O)N[C@@H](Cc3csc4ccccc34)C(=O)N[C@@H](CCC(N)=O)C(N)=O)NC(=O)[C@H](CCC(N)=O)NC(=O)[C@H](Cc3ccccc3)NC(=O)[C@H](C)NC(=O)[C@H](C)NC(=O)[C@H](CCC(=O)O)NC(=O)[C@H](CC(=O)O)NC1=O)NC(=O)[C@H](C(C)C)NC(=O)[C@H](CC(=O)O)NC2=O (stereo partly drawn) [I-410, Ac-PL3-Asp-Val-B5-Asp-Glu-Ala-Ala-Phe-Gln-S8-Phe-BztA-Gln-NH2] | 0.05 | – | – | 50 (≈ 93.5 µg/mL) | 2.26 | –
3 | CCCC[C@@H]1NC(=O)[C@H](CC(=O)O)NC(=O)[C@]2(CC=CCCCC3(CCCC=CCCCCCC[C@@](C)(C(=O)N[C@@H](Cc4ccccc4)C(=O)N[C@@H](Cc4csc5ccccc45)C(=O)N[C@@H](CCC(N)=O)C(N)=O)NC(=O)[C@H](C)NC(=O)[C@H](Cc4ccccc4)NC(=O)[C@H](C)NC(=O)[C@H](C)NC(=O)[C@H](CCC(=O)O)NC(=O)[C@H](CC(=O)O)NC3=O)NC1=O)CCCN2C(C)=O (stereo partly drawn) [I-411, Ac-PL3-Asp-nLeu-B5-Asp-Glu-Ala-Ala-Phe-Ala-S8-Phe-BztA-Gln-NH2] | 0.189 | – | – | 50 (≈ 91.3 µg/mL) | 2.57 | –
4 | CC(=O)N1CCC[C@]12CC=CCCCC1(CCCC=CCCCCCC[C@@](C)(C(=O)N[C@@H](Cc3ccccc3)C(=O)N[C@@H](Cc3csc4ccccc34)C(=O)N[C@@H](CCC(N)=O)C(N)=O)NC(=O)[C@H](CCC(N)=O)NC(=O)[C@H](Cc3ccccc3)NC(=O)[C@H](C)NC(=O)[C@H](C)NC(=O)[C@H](Cc3nn[nH]n3)NC(=O)[C@H](CC(=O)O)NC1=O)NC(=O)[C@H](C)NC(=O)[C@H](CC(=O)O)NC2=O (stereo partly drawn) [I-413, Ac-PL3-Asp-Ala-B5-Asp-tetz-Ala-Ala-Phe-Gln-S8-Phe-BztA-Gln-NH2] | 0.09 | – | – | – | 2 | 31 (≈ 57.4 µg/mL)
5 | CC(=O)N1CCC[C@]12CC=CCCCC1(CCCC=CCCCCCC[C@@](C)(C(=O)N[C@@H](Cc3ccccc3)C(=O)N[C@@H](Cc3csc4ccccc34)C(=O)N[C@@H](CCC(N)=O)C(N)=O)NC(=O)[C@H](CCC(N)=O)NC(=O)[C@H](Cc3ccccc3)NC(=O)[C@H](C)NC(=O)[C@H](C)NC(=O)[C@H](CCC(=O)O)NC(=O)[C@H](Cc3nn[nH]n3)NC1=O)NC(=O)[C@H](C)NC(=O)[C@H](CC(=O)O)NC2=O (stereo partly drawn) [I-414, Ac-PL3-Asp-Ala-B5-tetz-Glu-Ala-Ala-Phe-Gln-S8-Phe-BztA-Gln-NH2] | 3.42 | 3.42 | 2.096 | 19 (≈ 35.4 µg/mL) | – | –
6 | CC(=O)N1CCC[C@]12CC=CCCCC1(CCCC=CCCCCCC[C@@](C)(C(=O)N[C@@H](Cc3ccccc3)C(=O)N[C@@H](Cc3csc4ccccc34)C(=O)N[C@@H](CCC(N)=O)C(N)=O)NC(=O)[C@H](CCC(N)=O)NC(=O)[C@H](Cc3ccccc3)NC(=O)[C@H](C)NC(=O)[C@H](C)NC(=O)[C@H](CCC(=O)O)NC(=O)[C@H](Cc3nn[nH]n3)NC1=O)NC(=O)[C@H](C)NC(=O)[C@H](CC(=O)O)NC2=O (stereo partly drawn) [I-415, Ac-PL3-Asp-Ala-B5-tetz-Glu-Ala-Ala-Phe-Gln-S8-Phe-BztA-Gln-NH2] | 2.2 | 2.2 | 2.125 | 45 (≈ 83.9 µg/mL) | – | –
7 | CC(=O)N1CCC[C@]12CC=CCCCC1(CCCC=CCCCCCC[C@@](C)(C(=O)N[C@@H](Cc3ccccc3)C(=O)N[C@@H](Cc3csc4ccccc34)C(=O)N[C@@H](Cc3c[nH]cn3)C(N)=O)NC(=O)[C@H](CCC(N)=O)NC(=O)[C@H](Cc3ccccc3)NC(=O)[C@H](C)NC(=O)[C@H](C)NC(=O)[C@H](CCC(=O)O)NC(=O)[C@H](CC(=O)O)NC1=O)NC(=O)[C@H](C)NC(=O)[C@H](CC(=O)O)NC2=O (stereo partly drawn) [I-418, Ac-PL3-Asp-Ala-B5-Asp-Glu-Ala-Ala-Phe-Gln-S8-Phe-BztA-His-NH2] | 0.149 | 0.149 | 2.089 | 32 (≈ 59.2 µg/mL) | – | –
8 | CC(=O)N1CCC[C@]12CC=CCCCC1(CCCC=CCCCCCC[C@@](C)(C(=O)N[C@@H](Cc3ccccc3)C(=O)N[C@@H](Cc3csc4ccccc34)C(=O)N[C@@H](Cc3c[nH]cn3)C(N)=O)NC(=O)[C@H]([C@@H](C)O)NC(=O)[C@H](Cc3ccccc3)NC(=O)[C@H](C)NC(=O)[C@H](C)NC(=O)[C@H](CCC(=O)O)NC(=O)[C@H](CC(=O)O)NC1=O)NC(=O)[C@H](C)NC(=O)[C@H](CC(=O)O)NC2=O (stereo partly drawn) [I-420, Ac-PL3-Asp-Ala-B5-Asp-Glu-Ala-Ala-Phe-Thr-S8-Phe-BztA-His-NH2] | 0.128 | – | – | – | 2.16 | 24 (≈ 43.8 µg/mL)
9 | CC(=O)N1CCC[C@]12CC=CCCCC1(CCCC=CCCCCCC[C@@](C)(C(=O)N[C@@H](Cc3ccccc3)C(=O)N[C@@H](Cc3csc4ccccc34)C(=O)N[C@@H](Cc3c[nH]cn3)C(N)=O)NC(=O)[C@H](CC(N)=O)NC(=O)[C@H](Cc3ccccc3)NC(=O)[C@H](C)NC(=O)[C@H](C)NC(=O)[C@H](CCC(=O)O)NC(=O)[C@H](CC(=O)O)NC1=O)NC(=O)[C@H](C)NC(=O)[C@H](CC(=O)O)NC2=O (stereo partly drawn) [I-421, Ac-PL3-Asp-Ala-B5-Asp-Glu-Ala-Ala-Phe-Asn-S8-Phe-BztA-His-NH2] | 0.099 | 0.099 | 2.087 | 36 (≈ 66.1 µg/mL) | – | –
10 | CC(=O)N1CCC[C@]12CC=CCCCC1(CCCC=CCCCCCC[C@@](C)(C(=O)N[C@@H](Cc3ccccc3)C(=O)N[C@@H](Cc3csc4ccccc34)C(=O)N[C@@H](Cc3c[nH]cn3)C(N)=O)NC(=O)[C@H](CC(N)=O)NC(=O)[C@H](Cc3ccccc3)NC(=O)[C@H](C)NC(=O)[C@H](C)NC(=O)[C@H](CCC(=O)O)NC(=O)[C@H](CC(=O)O)NC1=O)NC(=O)[C@H](C)NC(=O)[C@H](CC(=O)O)NC2=O (stereo partly drawn) [I-422, Ac-PL3-Asp-Ala-B5-Asp-Glu-Ala-Ala-Phe-Asn-S8-Phe-BztA-His-NH2] | 0.027 | 0.027 | 2.136 | 24 (≈ 44.1 µg/mL) | – | –
11 | CC(=O)N1CCC[C@]12CC=CCCCC1(CCCC=CCCCCCC[C@@](C)(C(=O)N[C@@H](Cc3ccccc3)C(=O)N[C@@H](Cc3csc4ccccc34)C(=O)N[C@@H](CCC(N)=O)C(N)=O)NC(=O)[C@H]([C@@H](C)O)NC(=O)[C@H](Cc3ccccc3)NC(=O)[C@H](C)NC(=O)[C@H](C)NC(=O)[C@H](CCC(=O)O)NC(=O)[C@H](CC(=O)O)NC1=O)NC(=O)[C@H](C)NC(=O)[C@H](CC(=O)O)NC2=O (stereo partly drawn) [I-423, Ac-PL3-Asp-Ala-B5-Asp-Glu-Ala-Ala-Phe-Thr-S8-Phe-BztA-Gln-NH2] | 0.105 | – | – | – | 2.09 | 48 (≈ 87.1 µg/mL)
12 | CC(=O)N1CCC[C@]12CC=CCCCC1(CCCC=CCCCCCC[C@@](C)(C(=O)N[C@@H](Cc3ccccc3)C(=O)N[C@@H](Cc3csc4ccccc34)C(=O)N[C@@H](CCC(N)=O)C(N)=O)NC(=O)[C@H](CC(N)=O)NC(=O)[C@H](Cc3ccccc3)NC(=O)[C@H](C)NC(=O)[C@H](C)NC(=O)[C@H](CCC(=O)O)NC(=O)[C@H](CC(=O)O)NC1=O)NC(=O)[C@H](C)NC(=O)[C@H](CC(=O)O)NC2=O (stereo partly drawn) [I-424, Ac-PL3-Asp-Ala-B5-Asp-Glu-Ala-Ala-Phe-Asn-S8-Phe-BztA-Gln-NH2] | 0.17 | 0.17 | 1.968 | 50 (≈ 91.4 µg/mL) | – | –
